From ChEMBL document CHEMBL3751769, “Design, synthesis, and evaluation of semi-conservative mono-carbonyl analogs of curcumin as anti-inflammatory agents against lipopolysaccharide-induced acute lung injury” (Medchemcomm, 2015) come the findings set out here.

Active and inactive are the calls of the source. The rule behind the calls is not given here.

Data set [1] is described as follows: Cytotoxicity against human HL-7702 cells assessed as cell viability at 10 uM after 24 hrs by MTT assay. It is filed as cell-based. The following applies: l02, 24 h.
In data set [2] the test system is RAW264.7. Nature of the data set: Anti-inflammatory activity in mouse RAW264.7 cells assessed as inhibition of TNFalpha production at 10 uM preincubated for 30 mins followed by 0.5 ug/ml LPS addition after 24 hrs by ELISA. It is filed as functional.
The test system of data set [3] is RAW264.7. As to the kind of experiment: Anti-inflammatory activity in mouse RAW264.7 cells assessed as inhibition of IL-6 production at 10 uM preincubated for 30 mins followed by 0.5 ug/ml LPS addition after 24 hrs by ELISA. Format: functional. For orientation: ELISA stands for enzyme-linked immunosorbent assay.

In the case of `COc1cc(/C=C2\CCC/C(=C\c3ccccc3C(F)(F)F)C2=O)ccc1O`, the Activity entry in data set [1] is “Non-toxic”. For the same compound, the inhibition result in data set [2] and in data set [3] was “Active” in each case.
Regarding `COc1cc(/C=C2\CCC/C(=C\c3ccc(F)c(F)c3)C2=O)ccc1O`, the Activity result in data set [1] is “Non-toxic”. The inhibition entry in data set [2] and in data set [3] was “Active” throughout.
Regarding `COc1cc(/C=C2\CCC/C(=C\c3cc(OC)c(OC)c(OC)c3)C2=O)ccc1O`, the Activity result in data set [1] is reported as “Non-toxic”. Also, the inhibition entry in data set [2] and in data set [3] was “Active” in each case.
Regarding `COc1cc(/C=C2\CCC/C(=C\c3cccc(OC)c3O)C2=O)ccc1O`, in data set [1], the Activity entry is “Non-toxic”. Also, the inhibition entry in data set [2] and in data set [3] was “Active” each time.
In the case of `COc1cc(/C=C2\CCC/C(=C\c3ccc(F)c(Br)c3)C2=O)ccc1O`, the Activity entry in data set [1] was “Non-toxic”. Besides, the inhibition result in data set [2] and in data set [3] was “Active” each time.
Turning to `COc1cc(/C=C2\CCC/C(=C\c3cc(F)ccc3F)C2=O)ccc1O`, the Activity result in data set [1] is on record as “Non-toxic”. The inhibition result in data set [2] and in data set [3] was “Active” each time.
For `COc1cc(/C=C2\CCC/C(=C\c3c(F)cccc3F)C2=O)ccc1O`, the Activity entry in data set [1] was “Non-toxic”. The inhibition entry in data set [2] and in data set [3] was “Active” throughout.
Regarding `COc1cc(/C=C2\CC/C(=C\c3cc4c(cc3Br)OCO4)C2=O)ccc1O`, the Activity entry in data set [1] is listed as “Non-toxic”. The inhibition result in data set [2] and in data set [3] was “Active” in each case.
As to `COc1cc(/C=C2\CCC/C(=C\c3c(C)cc(C)cc3C)C2=O)ccc1O`, the Activity entry in data set [1] was “Non-toxic”. The inhibition result in data set [2] and in data set [3] was “Active” in each case.
Regarding `COc1ccc(OC)c(/C=C2\CCC/C(=C\c3ccc(O)c(OC)c3)C2=O)c1`, the Activity result in data set [1] is “Non-toxic”. In addition, the inhibition entry in data set [2] and in data set [3] was “Active” each time.
Consider `COc1ccc(/C=C2\CC/C(=C\c3ccc(O)c(OC)c3)C2=O)c(F)c1`, for which the Activity result in data set [1] is given as “Non-toxic”. Besides, the inhibition entry in data set [2] and in data set [3] was “Active” throughout.
On to `COc1cc(/C=C2\CCC/C(=C\c3ccc(Cl)cc3Cl)C2=O)ccc1O`, for which the Activity result in data set [1] is “Non-toxic”. For the same compound, the inhibition entry in data set [2] and in data set [3] was “Active” in each case.
Turning to `COc1cc(/C=C2\CCC/C(=C\c3cc(Br)c(O)c(Br)c3)C2=O)ccc1O`, the Activity entry in data set [1] is listed as “Non-toxic”. Also, the inhibition entry in data set [2] and in data set [3] was “Active” each time.
Take `COc1ccc(/C=C2\CCC/C(=C\c3ccc(O)c(OC)c3)C2=O)cc1`: the Activity entry in data set [1] is “Non-toxic”. In addition, the inhibition entry in data set [2] and in data set [3] was “Active” each time.
For `COc1cc(/C=C2\CCC/C(=C\c3ccccc3Br)C2=O)ccc1O`, the Activity entry in data set [1] is “Non-toxic”. Moreover, the inhibition result in data set [2] and in data set [3] was “Active” in each case.
For `COc1cc(/C=C2\CC/C(=C\c3cc4ccccc4[nH]3)C2=O)ccc1O`, the Activity entry in data set [1] is on record as “Non-toxic”. Besides, the “inhibition (INH)” value in data set [2] and in data set [3] was over 50% in each case.
Take `COc1cc(/C=C2\CCC/C(=C\c3cccc(F)c3)C2=O)ccc1O`: the Activity result in data set [1] is recorded as “Non-toxic”. In addition, the inhibition entry in data set [2] and in data set [3] was “Active” in each case.
With `COc1cc(/C=C2\CCC/C(=C\c3cc4c(cc3Br)OCO4)C2=O)ccc1O`, the Activity result in data set [1] is on record as “Non-toxic”. Also, the inhibition entry in data set [2] and in data set [3] was “Active” each time.
As for `COc1cc(/C=C2\CCC/C(=C\c3ccc4ccccc4c3)C2=O)ccc1O`, the Activity result in data set [1] is “Non-toxic”. Moreover, the inhibition entry in data set [2] and in data set [3] was “Active” throughout.
`COc1cc(/C=C2\CCC/C(=C\c3cccc(OC)c3OC)C2=O)ccc1O`: the Activity result in data set [1] is on record as “Non-toxic”. Also, the inhibition result in data set [2] and in data set [3] was “Active” throughout.
Turning to `COc1cc(/C=C2\CCC/C(=C\c3ccc(O)c(O)c3)C2=O)ccc1O`, in data set [1], the Activity entry is reported as “Non-toxic”. Moreover, the inhibition result in data set [2] and in data set [3] was “Active” each time.
For the compound `COc1cc(/C=C2\CC/C(=C\c3ccc4ccccc4c3)C2=O)ccc1O`, the Activity entry in data set [1] is “Non-toxic”. For the same compound, the inhibition entry in data set [2] and in data set [3] was “Active” throughout.
Consider `COc1cc(/C=C2\CCC/C(=C\c3ccccc3OC)C2=O)ccc1O`, for which the Activity entry in data set [1] was “Non-toxic”. Further, the inhibition result in data set [2] and in data set [3] was “Active” in each case.
As for `COc1cc(/C=C2\CCC/C(=C\c3ccc(OC)c(OC)c3)C2=O)ccc1O`, in data set [1], the Activity entry was “Non-toxic”. Besides, the inhibition result in data set [2] and in data set [3] was “Active” throughout.
Consider `COc1ccc(/C=C2\CCC/C(=C\c3ccc(O)c(OC)c3)C2=O)c(OC)c1`, for which the Activity result in data set [1] is listed as “Non-toxic”. Also, the inhibition entry in data set [2] and in data set [3] was “Active” in each case.
As to `COc1cc(/C=C2\CCC/C(=C\c3ccccc3F)C2=O)ccc1O`, the Activity entry in data set [1] is on record as “Non-toxic”. For the same compound, the inhibition entry in data set [2] and in data set [3] was “Active” throughout.
`COc1cc(/C=C2\CCC/C(=C\c3cccc(Cl)c3Cl)C2=O)ccc1O`: the Activity entry in data set [1] is given as “Non-toxic”. Besides, the inhibition entry in data set [2] and in data set [3] was “Active” each time.
For `COc1cc(/C=C2\CC/C(=C\c3c[nH]c4ncccc34)C2=O)ccc1O`, in data set [1], the Activity result was “Non-toxic”. Besides, the inhibition result in data set [2] and in data set [3] was “Active” in each case.
Turning to `COc1cc(/C=C2\CCC/C(=C\c3ccc(Cl)cc3)C2=O)ccc1O`, the Activity entry in data set [1] is “Non-toxic”. Also, the inhibition entry in data set [2] and in data set [3] was “Active” throughout.
With `COc1cc(/C=C2\CCC/C(=C\c3ccc(Cl)c([N+](=O)[O-])c3)C2=O)ccc1O`, the Activity result in data set [1] is “Non-toxic”. For the same compound, the inhibition result in data set [2] and in data set [3] was “Active” in each case.
Turning to `COc1cc(/C=C2\CCC/C(=C\c3ccc(Cl)c(Cl)c3)C2=O)ccc1O`, the Activity entry in data set [1] is “Non-toxic”. Besides, the inhibition result in data set [2] and in data set [3] was “Active” throughout.
Take `COc1cc(/C=C2\CCC/C(=C\c3ccc(O)cc3)C2=O)ccc1O`: in data set [1], the Activity entry is recorded as “Non-toxic”. In addition, the inhibition result in data set [2] and in data set [3] was “Active” in each case.
On to `CCOc1ccc(Br)cc1/C=C1\CCC/C(=C\c2ccc(O)c(OC)c2)C1=O`, for which the Activity entry in data set [1] is given as “Non-toxic”. Besides, the inhibition result in data set [2] and in data set [3] was “Active” each time.
